{"source": "paper PMC6934184", "about": "“Selective DNA-PKcs inhibition extends the therapeutic index of localized radiotherapy and chemotherapy” (The Journal of Clinical Investigation, 2019)", "biological_target": "T1, STK3 (MST2) (Homo sapiens, UniProt Q13188)", "T1 construct": "purchased Thermo Fisher Scientific (Life Technologies) SelectScreen", "T1 sequence (Q13188 whole entry)": "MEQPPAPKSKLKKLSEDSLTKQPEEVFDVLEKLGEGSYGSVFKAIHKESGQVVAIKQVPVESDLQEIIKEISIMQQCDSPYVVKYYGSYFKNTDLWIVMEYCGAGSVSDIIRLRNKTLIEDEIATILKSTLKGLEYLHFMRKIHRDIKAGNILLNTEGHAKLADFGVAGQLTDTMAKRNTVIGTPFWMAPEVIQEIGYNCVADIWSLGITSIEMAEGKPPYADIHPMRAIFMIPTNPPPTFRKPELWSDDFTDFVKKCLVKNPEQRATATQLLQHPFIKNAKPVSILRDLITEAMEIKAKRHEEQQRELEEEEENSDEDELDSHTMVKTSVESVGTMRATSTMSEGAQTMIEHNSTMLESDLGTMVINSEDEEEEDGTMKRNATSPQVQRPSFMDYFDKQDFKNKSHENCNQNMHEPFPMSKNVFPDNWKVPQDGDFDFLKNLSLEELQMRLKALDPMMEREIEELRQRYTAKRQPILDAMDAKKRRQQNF", "test": "SelectScreen Z'LYTE", "type": "biochemical", "in_short": "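NU5455 was profiled across the SelectScreen Broad panel of kinase activity and binding assays. Z'LYTE reactions such as CSF1R ran at apparent Km ATP, while the Adapta CAMK1 assay used ATP listed as 10. Values are given as percent.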"}
{"smiles": "CN(C(=O)CN1CCOCC1)c1ccc2sc3c(-c4cccc5c(=O)cc(N6CC7CCC(C6)O7)oc45)cccc3c2c1", "note": "[NU5455]", "values": [{"measurement": "inhibition at 1 µM", "value": -10.3, "unit": "%"}]}
